Measured values from US20260285850A1, “SUBSTITUTED OXAZOLIDINONES AND IMIDAZOLINONES AS HERBICIDES” (FMC CORPORATION, priority 2023, published 2026).

Legend:
Type in all cases: in vivo
[1] = tested on: ragweed (common ragweed, Ambrosia artemisiifolia); assay: Test A postemergence application, visual injury rating 0-100; settings: Postemergence
Outline: (§1)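 Compound in a non-phytotoxic, surfactant-containing solvent is applied either as a directed soil spray before seedlings emerge or onto emerged plants 2-10 cm tall; pots hold a loam-sand blend. Plants grow 10 days under greenhouse conditions and are rated by eye against untreated controls (0 no effect, 100 complete control).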

corn (Zea mays) [2] = assay: as above; settings: Postemergence
Outline: as §1

[3] = tested on: galium (catchweed bedstraw, Galium aparine); assay: as above; settings: Postemergence
Outline: as §1

[4] = tested on: palmer (palmer amaranth, palmer pigweed, Amaranthus palmeri); assay: as above; settings: Postemergence
Outline: as §1

[5] = tested on: ryegrass, Italian (italian ryegrass, Lolium multiflorum); assay: as above; settings: Postemergence
Outline: as §1

[6] = tested on: oat, wild (wild oat, Avena fatua); assay: as above; settings: Postemergence
Outline: as §1

soybean (Glycine max) [7] = assay: as above; settings: Postemergence
Outline: as §1

[8] = tested on: blackgrass (Alopecurus myosuroides); assay: as above; settings: Postemergence
Outline: as §1

[9] = tested on: barnyardgrass (Echinochloa crus-galli); assay: as above; settings: Postemergence
Outline: as §1

[10] = tested on: wheat (Triticum aestivum); assay: as above; settings: Postemergence
Outline: as §1

kochia (Bassia scoparia) [11] = assay: as above; settings: Postemergence
Outline: as §1

[12] = tested on: horseweed (Erigeron canadensis); assay: as above; settings: Postemergence
Outline: as §1

[13] = tested on: green foxtail (Setaria viridis); assay: as above; settings: Postemergence
Outline: as §1

[14] = tested on: ducksalad (Heteranthera limosa); assay: Test B flooded paddy test, visual plant response rating 0-100; settings: 250 g ai/ha, Flood, applied to paddy water, evaluated after 13 days
Outline: (§2)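 Treatment occurs at the 2-leaf stage by adding compound to floodwater standing 3 cm above the soil, a level kept for the whole test. Plants stay in the greenhouse 13 days before visual comparison with controls.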

rice (Oryza sativa) = assay: as above; settings: 250 g ai/ha, Flood, applied to paddy water, evaluated after 13 days
Outline: as §2

[15] = tested on: barnyardgrass (Echinochloa crusgalli); assay: as above; settings: 250 g ai/ha, Flood, applied to paddy water, evaluated after 13 days
Outline: as §2

[16] = tested on: sedge, umbrella (small-flower umbrella sedge, Cyperus difformis); assay: as above; settings: 250 g ai/ha, Flood, applied to paddy water, evaluated after 13 days
Outline: as §2

[17] = tested on: ragweed (common ragweed, Ambrosia artemisiifolia); assay: Test A preemergence soil spray, visual injury rating 0-100; settings: 0 to 100 scale, 10 days
Outline: as §1

corn (Zea mays) [18] = assay: as above; settings: 0 to 100 scale, 10 days
Outline: as §1

[19] = tested on: palmer (palmer amaranth, palmer pigweed, Amaranthus palmeri); assay: as above; settings: 0 to 100 scale, 10 days
Outline: as §1

[20] = tested on: ryegrass, Italian (italian ryegrass, Lolium multiflorum); assay: as above; settings: 0 to 100 scale, 10 days
Outline: as §1

[21] = tested on: oat, wild (wild oat, Avena fatua); assay: as above; settings: 0 to 100 scale, 10 days
Outline: as §1

soybean (Glycine max) [22] = assay: as above; settings: 0 to 100 scale, 10 days
Outline: as §1

[23] = tested on: blackgrass (Alopecurus myosuroides); assay: as above; settings: 0 to 100 scale, 10 days
Outline: as §1

[24] = tested on: barnyardgrass (Echinochloa crus-galli); assay: as above; settings: 0 to 100 scale, 10 days
Outline: as §1

[25] = tested on: wheat (Triticum aestivum); assay: as above; settings: 0 to 100 scale, 10 days
Outline: as §1

kochia (Bassia scoparia) [26] = assay: as above; settings: 0 to 100 scale, 10 days
Outline: as §1

[27] = tested on: green foxtail (Setaria viridis); assay: as above; settings: 0 to 100 scale, 10 days
Outline: as §1

[28] = 8 g ai/ha, 10 days, 0 is no effect, 100 is complete control
[29] = 31 g ai/ha, greenhouse 10 days, 0 no effect, 100 complete control

CC1(C(=O)NC2C=CC(C(=O)NS(=O)(=O)c3ccccc3)C2)CN(c2cc(F)cc(F)c2)C(=O)O1 (stereo not shown) [Compound 88]
80: Kochia plant response rating (0 to 100 scale) (kochia (Bassia scoparia) [11]; [29]) | Plant response rating, Sedge, Umbrella (0 to 100 scale, 0 is no effect and 100 is complete control) [16] | Amaranth, Palmer (Pigweed, Palmer) plant response rating ([19]; 31 g ai/ha)
20: Oat, Wild plant response rating (0 to 100 scale) [6, 28] | Wheat plant response rating (0 to 100 scale) [10, 28] | Foxtail, Green plant response rating ([27]; 8 g ai/ha)
15: Plant response rating, Barnyardgrass (0 to 100 scale, 0 is no effect and 100 is complete control) [15]
30: Galium plant response rating (0 to 100 scale) [3, 28] | Kochia plant response rating (0 to 100 scale) (kochia (Bassia scoparia) [11]; [28]) | Blackgrass plant response rating ([23]; 31 g ai/ha) | Foxtail, Green plant response rating ([27]; 31 g ai/ha)
60: Ragweed plant response rating (0 to 100 scale) [1, 29] | Kochia plant response rating (kochia (Bassia scoparia) [26]; 31 g ai/ha)
70: Galium plant response rating (0 to 100 scale) [3, 29] | Plant response rating, Ducksalad (0 to 100 scale, 0 is no effect and 100 is complete control) [14]
25: Plant response rating, Rice (0 to 100 scale, 0 is no effect and 100 is complete control) (rice (Oryza sativa))
10: Barnyardgrass plant response rating (0 to 100 scale) [9, 28] | Ryegrass, Italian plant response rating ([20]; 8 g ai/ha) | Barnyardgrass plant response rating ([24]; 8 g ai/ha) | Wheat plant response rating ([25]; 31 g ai/ha)
90: Corn plant response rating (0 to 100 scale) (corn (Zea mays) [2]; [29]) | Amaranth, Palmer / Pigweed, Palmer plant response rating (0 to 100 scale) [4, 29] | Oat, Wild plant response rating (0 to 100 scale) [6, 29]
50: Ragweed plant response rating (0 to 100 scale) [1, 28] | Ryegrass, Italian plant response rating (0 to 100 scale) [5, 29] | Soybean plant response rating (0 to 100 scale) (soybean (Glycine max) [7]; [29]) | Blackgrass plant response rating (0 to 100 scale) [8, 29] | Horseweed plant response rating (0 to 100 scale) [12, 29] | Foxtail, Green plant response rating (0 to 100 scale) [13, 29] | Pigweed, Palmer plant response rating ([19]; 8 g ai/ha) | Ryegrass, Italian plant response rating ([20]; 31 g ai/ha)
40: Corn plant response rating (0 to 100 scale) (corn (Zea mays) [2]; [28]) | Pigweed, Palmer plant response rating (0 to 100 scale) [4, 28] | Wheat plant response rating (0 to 100 scale) [10, 29] | Ragweed plant response rating ([17]; 31 g ai/ha) | Barnyardgrass plant response rating ([24]; 31 g ai/ha)
0: Ryegrass, Italian plant response rating (0 to 100 scale) [5, 28] | Soybean plant response rating (0 to 100 scale) (soybean (Glycine max) [7]; [28]) | Blackgrass plant response rating (0 to 100 scale) [8, 28] | Horseweed plant response rating (0 to 100 scale) [12, 28] | Foxtail, Green plant response rating (0 to 100 scale) [13, 28] | Ragweed plant response rating ([17]; 8 g ai/ha) | Corn plant response rating (corn (Zea mays) [18]; 8 g ai/ha) | Corn plant response rating (corn (Zea mays) [18]; 31 g ai/ha) | Oat, Wild plant response rating ([21]; 8 g ai/ha) | Oat, Wild plant response rating ([21]; 31 g ai/ha) | Soybean plant response rating (soybean (Glycine max) [22]; 8 g ai/ha) | Soybean plant response rating (soybean (Glycine max) [22]; 31 g ai/ha) | Blackgrass plant response rating ([23]; 8 g ai/ha) | Wheat plant response rating ([25]; 8 g ai/ha) | Kochia plant response rating (kochia (Bassia scoparia) [26]; 8 g ai/ha)
100: Barnyardgrass plant response rating (0 to 100 scale) [9, 29]
